# According to US7919456B2, “Connective tissue derived polypeptides” (Proteobioactives Pty Ltd., priority 2003, dated 2011):
# System: rat collagen induced arthritis (CIA) model
# Test: Rat collagen induced arthritis (CIA), prophylactic/therapeutic protocol
# Assay type: in vivo, Female Wistar rats
# Conditions: 6.3 mg/kg SC
# [1] = 15 days treatment, n = 4, scored 0-4+
smiles,measurement,setting,value
"O=C(O)CC([S-])C(=O)O.[Au+] (stereo not drawn) [ATM, aurothiomalate]",Signs of arthritis Day 15 Weight change,,+47 g
same,Signs of arthritis Day 18 Weight change,,+04 g
same,Mean arthritis scores Day 13,[1],0.8
same,Mean arthritis scores Day 15,[1],2.1
same,Mean arthritis scores Day 18,[1],2.1
same,Signs of arthritis Day 15 F/paw swell,fore paw,2.5 mm
same,Signs of arthritis Day 18 F/paw swell,fore paw,3.2 mm
same,Signs of arthritis Day 15 R/paw swell,rear paw,0.7 mm
same,Signs of arthritis Day 18 R/paw swell,rear paw,0.8 mm
